Data as given in patent US7217802B2, “Method and kit for detecting, or determining, 3,4-methylenedioxymethamphetamine” (Randox Laboratories Limited, priority 2001, dated 2007).
Converted amounts (≈) assume the structure as drawn. Where two headings read alike, the source gives them in different places.

How the values were obtained:
[1] = tested on: antiserum raised to immunogen 7 (IgG fraction); assay: MDMA competitive ELISA (microtiter plate); type: binding, sheep; details: for IC50 / % CR (cross-reactivity = IC50MDMA/IC50CR x 100): Hapten 7-HRP; for % CR (cross-reactivity = IC50MDMA/IC50CR x 100): relative to MDMA 100; for level of cross-reactivity of the MDMA assays (in words): summary of Table 2
Method: An aqueous solution of the immunogen prepared in Example 8 was formulated with Freund's Complete Adjuvant (FCA) to form an emulsion consisting of 2 mg/ml immunogen in 50% (v/v) FCA. Two sheep were immunised with this emulsion, 0.25 ml being subcutaneously injected at each of 4 sites in the flank of each animal. Subsequent immunisations (boosts) contained 1 mg/ml immunogen emulsified in 50% (v/v) Freund's Incomplete Adjuvant (FIA) and were administered in the same manner at monthly intervals for 1 year. Blood sampling took place 7 to 14 days after each boost. Each sample was processed to produce antiserum that was further purified by caprylic acid and ammonium sulfate precipitation to yield an immunoglobulin G (IgG) fraction. The IgG fraction was evaluated by competitive microtiter plate assay, as described below.
The wells of an enhanced binding 96 well polystyrene microtiter plate were coated with the IgG fraction of the antiserum raised to Immunogen 7 (Example 8), diluted in 10 mM Tris, pH8.5 (125 μl/well). The appropriate antibody coating dilution was determined using standard ELISA chequerboard techniques. The plate was incubated for 2 hours at 37° C., washed 4 times with Tris buffered saline containing Tween 20 (TBST) and tapped dry. Standard solutions of MDMA were prepared in TBST at 0, 1, 10, 50, 100, 250, 500 and 1000 ng/ml and 25 μl of each was added to the appropriate wells (FIG. 2). Conjugates (detection reagents)-hapten 7-HRP (Example 9) and hapten 10-HRP (Example 12)—were diluted in Tris buffer, pH7.2, containing EDTA, D-mannitol, sucrose, thimerosal and BSA, appropriate dilutions being determined by standard ELISA chequerboard techniques, and 100 μl of each was added to the appropriate wells (FIG. 2). The plate was incubated at 37° C. for 2 hours. Excess unbound conjugate was removed by washing 6 times over a 10 minute period with TBST.
125 μl of tetramethylbenzidine (TMB) substrate solution was added to each well of the plate which was then incubated for 15 to 20 minutes in the dark at room temperature. The reaction was terminated by addition of 125 μl 0.2 M H2SO4 to each well. The absorbance was then measured at 450 nm using a microtiter plate reader.
In order to determine the specificity of the MDMA competitive ELISAs, standard solutions of potential cross-reactants MDEA, MDA, d-amphetamine, (+)-methamphetamine, (+)-ephedrine, (−)-ephedrine, (+)-pseudoephedrine, (−)-pseudoephedrine and 1-amphetamine were prepared in TBST at 0, 500, 1000, 5000, 10000, 25000, 50000 and 100000 ng/ml. Employing each series of standards in the MDMA competitive ELISAs, calibration curves were generated and these were used to determine the cross-reactivity of the immunoassays with these drugs. The results of this study are presented in Table 2, cross-reactivity being calculated according to the following formula: % CR=IC50MDMA/IC50CR×100
Where % CR is the percentage cross-reactivity, IC50MDMA is the concentration of MDMA that causes 50% displacement of signal and IC50CR is the concentration of potential cross-reactant, for which % CR is being evaluated, that causes 50% displacement of signal.

[2] = tested on: Emit II Plus Monoclonal; details: cited from earlier work
[3] = tested on: Cozart Amphetamine; details: recalculated relative to 100% for MDMA; cited from earlier work
[4] = tested on: Cozart Methamphetamine and MDMA; details: cited from earlier work; for cross-reactivity, Cozart Methamphetamine and MDMA: recalculated relative to 100% for MDMA
[5] = tested on: Cozart methamphetamine EIA; details: cited from earlier work; for cross-reactivity, Cozart Methamphetamine: recalculated relative to 100% for MDMA; for cross-reactivity, Cozart methamphetamine EIA: compared to 100% for methamphetamine
[6] = tested on: Cozart MDMA EIA; details: cited from earlier work; for cross-reactivity, Cozart MDMA: recalculated relative to 100% for MDMA; for cross-reactivity, Cozart MDMA EIA: compared to 100% for MDMA
[7] = tested on: Cedia DAU; details: cited from earlier work
[8] = in vivo; cited from earlier work
[9] = recalculated relative to 100% for MDMA

(−)-Pseudoephedrine
IC50 ([1]; Trial 1): >100 µg/mL
% CR (cross-reactivity = IC50MDMA/IC50CR x 100) ([1]; Trial 1): <0.017%

CC(N)Cc1ccc2c(c1)OCO2 (centres unmarked) [MDA, 3,4-methylenedioxyamphetamine]
cross-reactivity, Emit [2, 9]: 430.1%
cross-reactivity, Cozart Amphetamine [3]: 208488–304164%
cross-reactivity, Cozart Methamphetamine and MDMA [4]: 0.87%
cross-reactivity, Cozart Methamphetamine [5]: 0.36%
IC50 ([1]; Trial 1): 0.3 µg/mL (≈ 1.67 µM)
% CR (cross-reactivity = IC50MDMA/IC50CR x 100) ([1]; Trial 1): 5.7%
level of cross-reactivity of the MDMA assays (in words) [1]: lower levels of cross-reactivity
cross-reactivity, Cozart MDMA [6]: 0.3–0.74%
cross-reactivity, CEDIA [7, 9]: 2.76%

CN[C@H](C)Cc1ccccc1 [L-Methamphetamine]
cross-reactivity, Emit [2, 9]: 378.7%
cross-reactivity, Cozart MDMA [6]: 4–22%
cross-reactivity, CEDIA [7, 9]: 17.4%

(+)-Pseudoephedrine
IC50 ([1]; Trial 1): >100 µg/mL
% CR (cross-reactivity = IC50MDMA/IC50CR x 100) ([1]; Trial 1): <0.017%

CN[C@@H](C)[C@H](O)c1ccccc1 [(−)-Ephedrine]
IC50 ([1]; Trial 1): >100 µg/mL
% CR (cross-reactivity = IC50MDMA/IC50CR x 100) ([1]; Trial 1): <0.017%

CN[C@H](C)[C@@H](O)c1ccccc1 [(+)-Ephedrine]
IC50 ([1]; Trial 1): >100 µg/mL
% CR (cross-reactivity = IC50MDMA/IC50CR x 100) ([1]; Trial 1): <0.017%

C[C@@H](N)Cc1ccccc1 [L-Amphetamine]
cross-reactivity, Emit [2, 9]: 120.13%
IC50 ([1]; Trial 2): >30 µg/mL
% CR (cross-reactivity = IC50MDMA/IC50CR x 100) ([1]; Trial 2): <0.1%
cross-reactivity, CEDIA [7, 9]: 4.35%

CN[C@@H](C)Cc1ccccc1 [D-Methamphetamine]
cross-reactivity, Cozart Methamphetamine and MDMA [4]: 217%
cross-reactivity, Cozart Methamphetamine [5]: 10%
IC50 ([1]; Trial 1): 11.138 µg/mL (≈ 74.6 µM)
% CR (cross-reactivity = IC50MDMA/IC50CR x 100) ([1]; Trial 1): 0.15%
level of cross-reactivity of the MDMA assays (in words) [1]: very low levels of cross-reactivity
cross-reactivity, Cozart MDMA EIA [6]: 52–80%
cross-reactivity, Cozart MDMA [6]: 52–80%
cross-reactivity, CEDIA [7, 9]: 145%

C[C@H](N)Cc1ccccc1 [D-Amphetamine]
cross-reactivity, Emit [2, 9]: 917%
cross-reactivity, Cozart Amphetamine [3]: 1,428%
cross-reactivity, Cozart Methamphetamine and MDMA [4]: 1.52%
cross-reactivity, Cozart Methamphetamine [5]: 1%
IC50 ([1]; Trial 1): 52.199 µg/mL (≈ 386 µM)
% CR (cross-reactivity = IC50MDMA/IC50CR x 100) ([1]; Trial 1): 0.03%
level of cross-reactivity of the MDMA assays (in words) [1]: very low levels of cross-reactivity
cross-reactivity, Cozart MDMA [6]: 0.2–0.43%
cross-reactivity, CEDIA [7, 9]: 146.5%

CNC(C)Cc1ccc2c(c1)OCO2 (centres unmarked) [MDMA, 3,4-methylenedioxymethamphetamine]
cross-reactivity, Emit ([2]; compared to 100% for D,L-methamphetamine): 14.3%
cross-reactivity, Emit [2, 9]: 100%
cross-reactivity, Cozart Amphetamine [3]: 100%
cross-reactivity, single Cozart methamphetamine kit ([4]; compared to 100% for methamphetamine): 43–49%
cross-reactivity, Cozart Methamphetamine and MDMA [4]: 100%
cross-reactivity, Cozart methamphetamine EIA [5]: 758–1250%
cross-reactivity, Cozart Methamphetamine [5]: 100%
IC50 (standard concentration which produces 50% B/B0) ([1]; Conjugate 7 (hapten 7-HRP)): 0.017 µg/mL (≈ 0.088 µM)
% B/B0 ([1]; Conjugate 7 (hapten 7-HRP), standard concentration 1 ng/ml): 83.4%
% B/B0 ([1]; Conjugate 7 (hapten 7-HRP), standard concentration 10 ng/ml): 58%
% B/B0 ([1]; Conjugate 7 (hapten 7-HRP), standard concentration 50 ng/ml): 34.7%
% B/B0 ([1]; Conjugate 7 (hapten 7-HRP), standard concentration 100 ng/ml): 26%
% B/B0 ([1]; Conjugate 7 (hapten 7-HRP), standard concentration 250 ng/ml): 15.9%
% B/B0 ([1]; Conjugate 7 (hapten 7-HRP), standard concentration 500 ng/ml): 10.9%
% B/B0 ([1]; Conjugate 7 (hapten 7-HRP), standard concentration 1000 ng/ml): 7.5%
IC50 (standard concentration which produces 50% B/B0) ([1]; Conjugate 10 (hapten 10-HRP)): 0.0236 µg/mL (≈ 0.122 µM)
% B/B0 ([1]; Conjugate 10 (hapten 10-HRP), standard concentration 1 ng/ml): 86.1%
% B/B0 ([1]; Conjugate 10 (hapten 10-HRP), standard concentration 10 ng/ml): 59.3%
% B/B0 ([1]; Conjugate 10 (hapten 10-HRP), standard concentration 50 ng/ml): 34.4%
% B/B0 ([1]; Conjugate 10 (hapten 10-HRP), standard concentration 100 ng/ml): 28.3%
% B/B0 ([1]; Conjugate 10 (hapten 10-HRP), standard concentration 250 ng/ml): 19.6%
% B/B0 ([1]; Conjugate 10 (hapten 10-HRP), standard concentration 500 ng/ml): 14.4%
% B/B0 ([1]; Conjugate 10 (hapten 10-HRP), standard concentration 1000 ng/ml): 8.97%
IC50 ([1]; Trial 1): 0.017 µg/mL (≈ 0.088 µM)
% CR (cross-reactivity = IC50MDMA/IC50CR x 100) ([1]; Trial 1): 100%
IC50 ([1]; Trial 2): 0.03 µg/mL (≈ 0.155 µM)
% CR (cross-reactivity = IC50MDMA/IC50CR x 100) ([1]; Trial 2): 100%
cross-reactivity, Cozart MDMA [6]: 100%
excreted unchanged in urine [8]: 65%
cross-reactivity, CEDIA ([7]; compared to 100% for D-methamphetamine): 69%
cross-reactivity, CEDIA [7, 9]: 100%

CN[C@@H](C)Cc1ccccc1 (racemic) [D,L-Methamphetamine]
cross-reactivity, Emit [2, 9]: 699.7%
cross-reactivity, CEDIA [7, 9]: 94.25%

CC(N)Cc1ccccc1 (racemic) [D,L-Amphetamine]
cross-reactivity, Emit [2, 9]: 545.6%
cross-reactivity, CEDIA [7, 9]: 84.1%

CCNC(C)Cc1ccc2c(c1)OCO2 (centres unmarked) [MDEA, 3,4-methylenedioxyethylamphetamine]
cross-reactivity, Cozart Amphetamine [3]: 228.5%
cross-reactivity, Cozart Methamphetamine and MDMA [4]: 10.85%
cross-reactivity, Cozart methamphetamine EIA [5]: 50–100%
cross-reactivity, Cozart Methamphetamine [5]: 5–10%
IC50 ([1]; Trial 2): 0.015 µg/mL (≈ 0.0724 µM)
% CR (cross-reactivity = IC50MDMA/IC50CR x 100) ([1]; Trial 2): 200%
level of cross-reactivity of the MDMA assays (in words) [1]: high levels of cross-reactivity
cross-reactivity, Cozart MDMA [6]: 7.0–13.0%

CCC(Cc1ccc2c(c1)OCO2)NC (centres unmarked) [MBDB, N-methyl-1-(3,4-methylenedioxyphenyl)-2-butamine]
cross-reactivity, Cozart Methamphetamine and MDMA [4]: 319–334.2%
cross-reactivity, Cozart methamphetamine EIA [5]: 150–200%
cross-reactivity, Cozart Methamphetamine [5]: 15–20%
cross-reactivity, Cozart MDMA EIA [6]: 10.4–20%
cross-reactivity, Cozart MDMA [6]: 10.4–20^ %
